Reference: paper PMC11012124, “Synthesis of Novel Triazine-Based Chalcones and 8,9-dihydro-7H-pyrimido[4,5-b][1,4]diazepines as Potential Leads in the Search of Anticancer, Antibacterial and Antifungal Agents” (International Journal of Molecular Sciences, 2024)

Tests used:
[1] = test system: OVCAR-5; assay: cells; conditions: Homo sapiens, OVCAR-5, 48 h; for CC50: read-out: LC50
[2] = test system: MOLT-4; assay: cells; conditions: Homo sapiens, MOLT-4, 48 h; for CC50: read-out: LC50
[3] = test system: SNB-75; assay: cells; conditions: Homo sapiens, SNB-75, 48 h; for CC50: read-out: LC50
[4] = test system: SK-MEL-5; assay: cells; conditions: Homo sapiens, SK-MEL-5, 48 h; for CC50: read-out: LC50
[5] = test system: SF-295; assay: cells; conditions: Homo sapiens, SF-295, 48 h; for CC50: read-out: LC50
[6] = test system: OVCAR-4; assay: cells; conditions: Homo sapiens, OVCAR-4, 48 h; for CC50: read-out: LC50
[7] = test system: NCI-H522; assay: cells; conditions: Homo sapiens, NCI-H522, 48 h; for CC50: read-out: LC50
[8] = test system: 786-0; assay: cells; conditions: Homo sapiens, 786-0, 48 h; for CC50: read-out: LC50
[9] = test system: SK-OV-3; assay: cells; conditions: Homo sapiens, SK-OV-3, 48 h; for CC50: read-out: LC50
[10] = test system: MDA-MB-231/ATCC; assay: cells; conditions: Homo sapiens, MDA-MB-231, 48 h; for CC50: read-out: LC50
[11] = test system: U251; assay: cells; conditions: Homo sapiens, U-251, 48 h; for GI50: U251, 48 h; for CC50: read-out: LC50
[12] = test system: MDA-MB-468; assay: cells; conditions: Homo sapiens, MDA-MB-468, 48 h; for CC50: read-out: LC50
[13] = test system: A498; assay: cells; conditions: Homo sapiens, A498, 48 h; for CC50: read-out: LC50
[14] = test system: A549/ATCC; assay: cells; conditions: Homo sapiens, A549, 48 h; for CC50: read-out: LC50
[15] = test system: DU-145; assay: cells; conditions: Homo sapiens, DU-145, 48 h; for CC50: read-out: LC50
[16] = test system: LOX IMVI; assay: cells; conditions: Homo sapiens, 48 h; for CC50: read-out: LC50, LOX IMVI, 48 h
[17] = test system: 60 cancer cell lines; assay: NCI-60 one-dose screen (10 μM); format: cell-based; conditions: Homo sapiens; one dose of 10 μM, mean over 60 cancer cell lines; read-out: Mean Growth Percent (MGP)
Description: Additionally, the mean of the growth percentages (MGP) of each compound against all the 60 cancer cell lines is also reported, which is used as one of the selection criteria to continue with tests at five concentration doses.

[18] = test system: MCF7; assay: cells; conditions: Homo sapiens, MCF7, 48 h; for CC50: read-out: LC50
[19] = test system: SF-539; assay: cells; conditions: Homo sapiens, SF-539, 48 h; for CC50: read-out: LC50, SF-539, 48 h
[20] = test system: SK-MEL-2; assay: cells; conditions: Homo sapiens, SK-MEL-2, 48 h; for CC50: read-out: LC50
[21] = test system: HOP-92; assay: cells; conditions: Homo sapiens, HOP-92, 48 h; for CC50: read-out: LC50
[22] = test system: UACC-257; assay: cells; conditions: Homo sapiens, UACC-257, 48 h; for CC50: read-out: LC50
[23] = test system: NCI-H226; assay: cells; conditions: Homo sapiens, NCI-H226, 48 h; for CC50: read-out: LC50
[24] = test system: HCT-15; assay: cells; conditions: Homo sapiens, HCT-15, 48 h; for CC50: read-out: LC50
[25] = test system: KM12; assay: cells; conditions: Homo sapiens, KM12, 48 h; for CC50: read-out: LC50
[26] = test system: SN12C; assay: cells; conditions: Homo sapiens, 48 h
[27] = test system: HCT-116; assay: cells; conditions: Homo sapiens, HCT-116, 48 h; for CC50: read-out: LC50
[28] = test system: HL-60(TB); assay: cells; conditions: Homo sapiens, HL-60, 48 h; for CC50: read-out: LC50
[29] = test system: NCI-H460; assay: cells; conditions: Homo sapiens, NCI-H460, 48 h; for CC50: read-out: LC50
[30] = test system: RPMI-8226; assay: cells; conditions: Homo sapiens, RPMI-8226, 48 h
[31] = test system: HT29; assay: cells; conditions: Homo sapiens, HT-29, 48 h; for CC50: read-out: LC50
[32] = test system: UO-31; assay: cells; conditions: Homo sapiens, UO-31, 48 h; for CC50: read-out: LC50
[33] = test system: COLO 205; assay: cells; conditions: Homo sapiens, COLO 205, 48 h; for CC50: read-out: LC50
[34] = test system: TK-10; assay: cells; conditions: Homo sapiens, TK-10, 48 h; for CC50: read-out: LC50
[35] = test system: T-47D; assay: cells; conditions: Homo sapiens, T47D, 48 h; for CC50: read-out: LC50
[36] = test system: M14; assay: cells; conditions: Homo sapiens, M14, 48 h; for CC50: read-out: LC50

Nc1nc(N)c2c(n1)NC(c1ccc(Cl)cc1)CC(c1ccc(Nc3nc(NCCO)nc(Nc4ccc(Cl)cc4)n3)cc1)=N2 (centres unmarked) [33e]
GI50 [1]: 4.48 µM | CC50 [1]: 74 µM | GI50 [2]: 0.79 µM | CC50 [2]: > 100 µM | GI50 [3]: 1.59 µM | CC50 [3]: 9.94 µM | GI50 [4]: 1.48 µM | CC50 [4]: 5.3 µM | GI50 [5]: 1.73 µM | CC50 [5]: 7.76 µM | GI50 [6]: 1.96 µM | CC50 [6]: 32.7 µM | GI50 [7]: 1.56 µM | CC50 [7]: 6.41 µM | GI50 [8]: 1.55 µM | CC50 [8]: 5.96 µM | GI50 [9]: 14.8 µM | CC50 [9]: 58.3 µM | GI50 [10]: 1.75 µM | CC50 [10]: 8.82 µM | GI50 [11]: 1.47 µM | CC50 [11]: 5.81 µM | GI50 [12]: 1.39 µM | CC50 [12]: 5.6 µM | GI50 [13]: 5.9 µM | CC50 [13]: 44.5 µM | GI50 [14]: 4.12 µM | CC50 [14]: > 100 µM | GI50 [15]: 2.22 µM | CC50 [15]: 22.8 µM | GI50 [16]: 1.45 µM | CC50 [16]: 5.63 µM | activity at 10 µM [17]: 30.5% | GI50 [18]: 1.2 µM | CC50 [18]: 5.47 µM | GI50 [19]: 1.68 µM | CC50 [19]: 6.56 µM | GI50 [20]: 1.45 µM | CC50 [20]: 5.53 µM | GI50 [21]: 1.29 µM | CC50 [21]: 7.54 µM | GI50 [22]: 1.91 µM | CC50 [22]: 7.32 µM | GI50 [23]: 6.47 µM | CC50 [23]: > 100 µM | GI50 [24]: 1.29 µM | CC50 [24]: 6.09 µM | GI50 [25]: 3.18 µM | CC50 [25]: > 100 µM | GI50 [26]: 1.95 µM | GI50 [27]: 1.4 µM | CC50 [27]: 5.19 µM | GI50 [28]: 1.15 µM | CC50 [28]: > 100 µM | GI50 [29]: 1.72 µM | CC50 [29]: 6.42 µM | GI50 [30]: 1.44 µM | GI50 [31]: 1.7 µM | CC50 [31]: 7.96 µM | GI50 [32]: 3.1 µM | CC50 [32]: > 100 µM | GI50 [33]: 1.51 µM | CC50 [33]: 8.55 µM | GI50 [34]: 10.6 µM | CC50 [34]: 60.4 µM | GI50 [35]: 1.71 µM | CC50 [35]: 54.6 µM | GI50 [36]: 1.9 µM | CC50 [36]: 10.5 µM

Cc1ccc(C2CC(c3ccc(Nc4nc(NCCO)nc(Nc5ccc(Cl)cc5)n4)cc3)=Nc3c(N)nc(N)nc3N2)cc1 (centres unmarked) [33b]
GI50 [1]: 1.62 µM | CC50 [1]: 5.59 µM | GI50 [2]: 1.38 µM | CC50 [2]: > 100 µM | GI50 [3]: 1.62 µM | CC50 [3]: 6.73 µM | GI50 [4]: 1.56 µM | CC50 [4]: 5.43 µM | GI50 [5]: 1.63 µM | CC50 [5]: 5.63 µM | GI50 [6]: 1.85 µM | CC50 [6]: 7.14 µM | GI50 [7]: 1.72 µM | CC50 [7]: 7.03 µM | GI50 [8]: 1.64 µM | CC50 [8]: 5.7 µM | GI50 [9]: 2.69 µM | CC50 [9]: 25.6 µM | GI50 [10]: 1.67 µM | CC50 [10]: 6.37 µM | GI50 [11]: 1.6 µM | CC50 [11]: 5.65 µM | GI50 [12]: 1.65 µM | CC50 [12]: 6.09 µM | GI50 [13]: 3.85 µM | CC50 [13]: 42 µM | GI50 [14]: 1.74 µM | CC50 [14]: 6.8 µM | GI50 [15]: 1.76 µM | CC50 [15]: 5.77 µM | GI50 [16]: 1.65 µM | CC50 [16]: 5.69 µM | activity at 10 µM [17]: -21.8% | GI50 [18]: 1.46 µM | CC50 [18]: 6.22 µM | GI50 [19]: 1.57 µM | CC50 [19]: 5.63 µM | GI50 [20]: 1.81 µM | CC50 [20]: 6.4 µM | GI50 [21]: 1.3 µM | CC50 [21]: 6.3 µM | GI50 [22]: 1.84 µM | CC50 [22]: 6.54 µM | GI50 [23]: 16.7 µM | CC50 [23]: 88.2 µM | GI50 [24]: 1.48 µM | CC50 [24]: 5.87 µM | GI50 [25]: 1.97 µM | CC50 [25]: 7.54 µM | GI50 [26]: 1.79 µM | CC50 ([26]; read-out: LC50): 6.39 µM | GI50 [27]: 1.62 µM | CC50 [27]: 5.45 µM | GI50 [28]: 1.71 µM | CC50 [28]: > 100 µM | GI50 [29]: 1.8 µM | CC50 [29]: 6.41 µM | GI50 [30]: 1.83 µM | CC50 ([30]; read-out: LC50): > 100 µM | GI50 [31]: 1.78 µM | CC50 [31]: 7.14 µM | GI50 [32]: 1.64 µM | CC50 [32]: 5.51 µM | GI50 [33]: 1.67 µM | CC50 [33]: 6.09 µM | GI50 [34]: 1.9 µM | CC50 [34]: 6.02 µM | GI50 [35]: 1.67 µM | CC50 [35]: 8.01 µM | GI50 [36]: 1.84 µM | CC50 [36]: 5.99 µM
